Test systems include ACHN renal; SK-MEL-28 melanoma; A498 renal; NCI/ADR-RES ovarian; UO-31 renal; MDA-MB-231 breast; OVCAR-4 ovarian; PC-3 prostate.
Holding throughout (assay): growth of human tumour cells (NCI), 48 h

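How tested: cells in 96-well plates exposed to compound for 48 hours at five concentrations. GI50 = concentration required for 50% inhibition of growth. TGI denotes the concentration required for complete inhibition of growth.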

On to `Cc1cc(NCCN(C(C)C)C(C)C)nc(/N=C(\N)Nc2ccc(Cl)c(C(F)(F)F)c2)n1`, for which the GI50 with ACHN renal was 0.381 µM; in the assay with SK-MEL-28 melanoma it was 0.176 µM; in the assay with A498 renal it was 0.139 µM; in the assay on NCI/ADR-RES ovarian, 1.67 µM; in the assay with UO-31 renal, 0.201 µM; in the assay on MDA-MB-231 breast, 0.292 µM. The results for the GI50 in the assay on OVCAR-4 ovarian and in the assay with PC-3 prostate were 0.697 µM and 0.596 µM, respectively. Moreover, the TGI was 1.06 µM in the assay with ACHN renal; 0.32 µM with SK-MEL-28 melanoma; 1.42 µM in the assay with A498 renal; 3.45 µM with NCI/ADR-RES ovarian; 0.604 µM in the assay on UO-31 renal; 1.04 µM in the assay with MDA-MB-231 breast. Moreover, the values for the TGI with OVCAR-4 ovarian and in the assay on PC-3 prostate were 1.97 µM and 2.45 µM, respectively.

Regarding `N#CCCN(CCCN(CCCN(C(=O)Nc1ccccc1)c1ccccc1)C(=O)Nc1ccccc1)C(=O)Nc1ccccc1`, the TGI in the assay with ACHN renal is > 8.75 µM; in the assay with SK-MEL-28 melanoma it was > 100 µM; in the assay with A498 renal, > 100 µM; in the assay with NCI/ADR-RES ovarian it was > 100 µM; with UO-31 renal, > 8.75 µM; in the assay with MDA-MB-231 breast, > 100 µM. Also, the TGI in the assay with OVCAR-4 ovarian and with PC-3 prostate was > 100 µM in each case. The GI50 in the assay on SK-MEL-28 melanoma, in the assay on NCI/ADR-RES ovarian, with MDA-MB-231 breast and with PC-3 prostate was > 100 µM throughout.

Regarding `CC(=O)C(=Cc1ccc(C=C(C(C)=O)C(C)=O)cc1)C(C)=O`, the TGI in the assay with ACHN renal is 3.59 µM; in the assay on SK-MEL-28 melanoma, 4.48 µM; with A498 renal, 9.03 µM; in the assay on NCI/ADR-RES ovarian, 11.2 µM; in the assay with UO-31 renal, 3.1 µM; in the assay on MDA-MB-231 breast it was 4.4 µM. Besides, the TGI in the assay with OVCAR-4 ovarian turned out to be 6.76 µM; in the assay with PC-3 prostate, 5.17 µM.

Turning to `O=C(Cn1c(=O)c(-c2ccccc2)nc2ccccc21)Nc1ccc(F)cc1`, the GI50 is 42.6 µM in the assay with ACHN renal; > 100 µM in the assay with SK-MEL-28 melanoma; 13.7 µM in the assay on A498 renal; > 100 µM with NCI/ADR-RES ovarian; > 100 µM with UO-31 renal; 99.7 µM in the assay with MDA-MB-231 breast. Moreover, the GI50 in the assay with OVCAR-4 ovarian was 47.3 µM; in the assay on PC-3 prostate it was 39.9 µM. Besides, the TGI in the assay on ACHN renal was > 100 µM; with SK-MEL-28 melanoma, > 100 µM; in the assay with A498 renal, 97.9 µM; in the assay with NCI/ADR-RES ovarian, > 100 µM; in the assay on UO-31 renal, > 100 µM; with MDA-MB-231 breast it was > 100 µM. The TGI with OVCAR-4 ovarian and in the assay with PC-3 prostate was > 100 µM throughout.

As for `CN1CCN(CCOc2ccc(-c3cnc4c(-c5ccc(C(F)(F)F)cc5)cnn4c3)cc2)CC1`, the GI50 in the assay with ACHN renal was 1.57 µM; in the assay with SK-MEL-28 melanoma it was 1.68 µM; with A498 renal, 1.37 µM; in the assay on UO-31 renal, 1.34 µM; in the assay with MDA-MB-231 breast, 1.5 µM; with OVCAR-4 ovarian, 1.16 µM. Besides, in the assay with PC-3 prostate, the GI50 is 1.43 µM. Further, the TGI is 2.91 µM with ACHN renal; 3.11 µM in the assay with SK-MEL-28 melanoma; 2.76 µM in the assay with A498 renal; 2.65 µM in the assay on UO-31 renal; 2.95 µM in the assay on MDA-MB-231 breast; 2.48 µM in the assay with OVCAR-4 ovarian. This molecule came in with a TGI in the assay on PC-3 prostate of 2.86 µM.

On to `C[C@]12CCc3sc(NCCc4ccccc4)nc3C1=CC[C@@H]1[C@@H]2CC[C@]2(C)C(=O)CC[C@@H]12`, for which the GI50 was 1.96 µM with ACHN renal; 3.37 µM in the assay with SK-MEL-28 melanoma; 4.43 µM in the assay with A498 renal; 2.31 µM in the assay with NCI/ADR-RES ovarian; 4.03 µM in the assay with UO-31 renal; 3.4 µM in the assay on MDA-MB-231 breast. Further, the GI50 in the assay with OVCAR-4 ovarian is 3.93 µM; in the assay on PC-3 prostate it was 3.35 µM. In addition, the TGI in the assay on ACHN renal is 3.75 µM; in the assay on SK-MEL-28 melanoma, 18.9 µM; in the assay with A498 renal, > 100 µM; with NCI/ADR-RES ovarian it was 7.52 µM; in the assay with UO-31 renal it was 25.1 µM; in the assay on MDA-MB-231 breast, 21.4 µM. Further, the TGI in the assay with OVCAR-4 ovarian and with PC-3 prostate was > 100 µM throughout.

As for `Cc1cc(O)c(C2=NN(c3ccc(S(N)(=O)=O)cc3)C(c3ccccc3Cl)C2)cc1Cl` (stereo not given), the GI50 was 3.34 µM with ACHN renal; 3.39 µM in the assay on SK-MEL-28 melanoma; 5.01 µM with A498 renal; 2.7 µM in the assay with NCI/ADR-RES ovarian; 2.66 µM with UO-31 renal; 2.14 µM in the assay with MDA-MB-231 breast. Moreover, the results for the GI50 in the assay on OVCAR-4 ovarian and in the assay with PC-3 prostate were 2.73 µM and 1.58 µM, respectively. Besides, the TGI in the assay with ACHN renal is 11 µM; with SK-MEL-28 melanoma, 12.3 µM; in the assay on A498 renal, 20.5 µM; with NCI/ADR-RES ovarian, 6.85 µM; in the assay on UO-31 renal, 16.2 µM; in the assay with MDA-MB-231 breast it was 4.52 µM. Besides, the TGI was 8.48 µM with OVCAR-4 ovarian and 3.32 µM in the assay on PC-3 prostate.

With `O=C(Nc1cccc(-n2cc(-c3ccncc3)c(-c3cc(O)cc(Cl)c3)n2)c1)Nc1ccc(Cl)c(C(F)(F)F)c1`, the GI50 in the assay on ACHN renal was 3.1 µM; with SK-MEL-28 melanoma, 2.01 µM; in the assay on A498 renal, 3.9 µM; in the assay on NCI/ADR-RES ovarian, 3.4 µM; with UO-31 renal it was 2.1 µM; in the assay on MDA-MB-231 breast, 1.86 µM. Moreover, the results for the GI50 in the assay on OVCAR-4 ovarian and in the assay on PC-3 prostate were 3.21 µM and 2.1 µM, respectively. Besides, the TGI worked out at 15.3 µM in the assay with ACHN renal; 6.2 µM in the assay with SK-MEL-28 melanoma; 15.5 µM in the assay with A498 renal; 23.6 µM in the assay on NCI/ADR-RES ovarian; 6.14 µM in the assay with UO-31 renal; 5.85 µM in the assay with MDA-MB-231 breast. Besides, the values for the TGI in the assay on OVCAR-4 ovarian and in the assay on PC-3 prostate were 9.23 µM and 6.43 µM, respectively.

With `O=C(N/C(=C/c1ccc(Cl)cc1Cl)c1nc2ccccc2s1)c1ccccc1`, the TGI in the assay on ACHN renal was 19.5 µM; in the assay on SK-MEL-28 melanoma, 34.2 µM; in the assay with NCI/ADR-RES ovarian it was 39.5 µM; in the assay on UO-31 renal, 29.9 µM; in the assay on MDA-MB-231 breast it was 22.3 µM; with OVCAR-4 ovarian it was 33.7 µM. In the assay on PC-3 prostate, this molecule displayed a TGI of 38.9 µM.

For the molecule `O=c1oc(Cl)c(Cl)c2ccccc12`, the GI50 in the assay on ACHN renal was 16.1 µM; in the assay on SK-MEL-28 melanoma, 46.5 µM; in the assay with NCI/ADR-RES ovarian, 18.1 µM; with UO-31 renal it was 22.4 µM; in the assay with MDA-MB-231 breast, 24.8 µM; in the assay on OVCAR-4 ovarian, 30 µM. In addition, the GI50 in the assay with PC-3 prostate is 17.8 µM. For the same molecule, the TGI in the assay with ACHN renal was 39.7 µM; with SK-MEL-28 melanoma, > 100 µM; in the assay with NCI/ADR-RES ovarian, 41.3 µM; with UO-31 renal, 47.9 µM; in the assay on MDA-MB-231 breast, 68.4 µM; in the assay on OVCAR-4 ovarian, > 100 µM. Further, in the assay on PC-3 prostate, the TGI was 35.2 µM.

For the origin of these results see PubChem BioAssay (NCI).
